Experimental data reported in patent publication US10509041B2, “Glucose derivative, and cell imaging method and imaging agent using said derivative” (HIROSAKI UNIVERSITY, priority 2014, dated 2019).
“And” between values parts separate entries of the source, which are not always exact repeats. Identical values can stand only once.

Columns and labels:
[1] = test system: mouse insulinoma cells (MIN6); assay: Increase in fluorescence intensity (uptake) after administration of fluorescent glucose derivative to MIN6 cells, influence of cytochalasin B (CB) or phloretin (PHT), fluorescence microplate reader; assay type: cell-based; details: for effect of PHT on increase in fluorescence intensity (uptake) caused by administration: CDG and CLG on the same dish
[2] = test system: neuronal cells of the substantia nigra pars reticulate of the midbrain; assay: Fluorescent imaging of acutely isolated normal neuronal cells; assay type: cell-based, mouse; details: 3 minutes, 8 minutes after start of washout
Experimental: The whole amount of the 0.5 mg CLG vial was recovered using 0.73 mL in total of 10% DMSO and dissolved (100 μM) by addition to 14.79 ml of a HEPES solution for image acquisition according to the method described in Non Patent Literature 2. […]
150 mM NaCl, 5 mM KCl, 1 mM MgCl2, 2 mM CaCl2, and 10 mM HEPES (the pH of the solution was adjusted to 7.4 with a 1 M tris(2-amino-2-hydroxymethyl-1,3-propanediol) solution). The concentration of glucose was set to 10 mM. 0.1 mM carbenoxolone (Sigma-Aldrich, #C4790) was added thereto for the purpose of inhibiting the entrance and exit of fluorescently labeled glucose by way of gap junction/hemichannel. This HEPES solution for image acquisition was used for preparing the CLG solution and the mixed solution with the additional fluorescent sugar derivative.
Neuronal cells […] to the method described in the previous reports of the inventors (WO2010/16587 (Patent Literature 2)) and (WO2012/133688 (Patent Literature 4)) and attached to each glass cover slip coated with poly-L-lysine. Then, the glass cover slip was transferred into the HEPES solution for image acquisition in a perfusion chamber loaded on a stage of a fluorescence microscope, followed by observation.
A silicon plate of 1 mm thickness bored to have a streamline-shaped hole (10 mm wide x 35 mm long) was placed via cover glass onto an aluminum heating control platform (Warner Instruments) having a round hole (diameter: 18 mm) for an objective lens at the bottom, and allowed to be in close contact with the cover glass.
The HEPES solution for image acquisition was warmed in advance in an aluminum syringe heater and supplied to the perfusion chamber through hydrostatic pressure. The perfusion rate was adjusted to 1.3±0.2 mL/min using a flow rate adjuster. Immediately before being introduced to the perfusion chamber, the solution was rewarmed via an inline heater so that the actually measured temperature of the perfusate in an observation region in the chamber was adjusted to 32.5±1° C. The CLG/2-TRLG mixed solution was able to be supplied in the same way as above and was switched with the HEPES solution for image acquisition using an electromagnetic valve capable of controlling the opening and closing of the channel. The solution was removed using a vacuum pump capable of controlling suction pressure.
The fluorescence microscope used was NIKON ECLIPS-Ti, and images were acquired with a CCD camera Retiga 2000R.
CLG and 2-TRLG were each detected using the following filter cassette.
Excitation 360/40 nm, Dichroic mirror 400 nm, Emission 460/50 nm.
Excitation 567/15 nm, Dichroic mirror 593 nm, Emission 593 nm Long pass.
The objective lens used in this method was ×20 dry lens (Nikon Plan S Fluor). The images were acquired at 1600×1200 pixels. […]

[3] = test system: mouse insulinoma cells (MIN6); assay: Influence of excessive D-glucose or L-glucose on increase in fluorescence intensity caused by CDG or CLG in MIN6 cells; assay type: cell-based; details: 100 μM, 37° C. 5 min, MIN6 culture day 13, versus non-excessive glucose control
Experimental: Whether or not increase in fluorescence intensity caused by the administration of the blue fluorescent D-glucose derivative CDG (100 μM) to the mouse insulinoma cells MIN6 at culture day 13 was inhibited by a large excess of D-glucose or L-glucose was examined. The blue fluorescent L-glucose derivative CLG was similarly analyzed as a control. However, the following conditions were changed.
Although the usual KRB solution contains 129 mM NaCl and 5.6 mM D-glucose, the osmotic pressure of a control solution (non-excessive glucose administration group solution) for this experiment was adjusted to 270 mOsm by substituting a portion of NaCl with choline-Cl, in order to equalize charge and osmotic pressure between the control solution and a KRB solution for excessive glucose administration. Also, the KRB solution for excessive glucose administration was allowed to contain NaCl and glucose according to the composition given below. In this respect, choline-Cl was added thereto in order to equalize osmotic pressure between this solution and the control solution (non-excessive glucose administration group solution).
100 mM NaCl and 5.6 mM D-glucose (non-excessive glucose administration group solution)
100 mM NaCl and 50 mM D-glucose (50 mM excessive D-glucose administration group solution)
100 mM NaCl, 50 mM L-glucose, and 5.6 mM D-glucose (50 mM excessive L-glucose administration group solution)
These dedicated KRB solutions were also used as a solution for preparing CDG and CLG solutions in this Example.
CDG and CLG were placed on different plates for the experiment. A CDG solution (or a CLG solution) prepared using each dedicated KRB solution was administered thereto using an 8-channel pipette (37° C., 5 min). Before the administration, replacement with each dedicated KRB solution was carried out in advance, and the autofluorescence of each well was measured with a fluorescence microplate reader. The time from the start of the replacement to immediately before the administration was approximately 28 minutes.
After the completion of the administration, first, the fluorescent solution in each well was temporarily diluted using 200 μL of the dedicated KRB solution and then diluted using 300 μL of the usual KRB solution.
The influence of the presence of 50 mM L-glucose was also studied as a control in evaluating the influence of the presence of a large excess (50 mM) of D-glucose on increase in fluorescence intensity.

| Compound | effect of PHT on increase in fluorescence intensity (uptake) caused by administration ([1]; MIN6 culture day 15, 5 minutes) | increase in fluorescence intensity caused by administration, compared with CDG (D/L stereoselectivity) ([1]; same dish, MIN6 culture day 15, 5 minutes) | uptake into normal neuronal cells ([2]; 100 μM CLG+20 μM 2-TRLG mixed solution, 21-day-old mouse) | effect of 50 mM D-glucose on increase in fluorescence intensity caused by administration [3] | effect of 50 mM L-glucose on increase in fluorescence intensity caused by administration [3] | fluorescence intensity in the presence of PHT relative to the absence of PHT ([1]; CDG 100 μM, 37° C. 5 minutes, PHT 150 μM, MIN6 culture day 13, average, two independent experiments) | uptake into normal neuronal cells ([2]; 100 μM CDG+20 μM 2-TRLG mixed solution, 14-day-old mouse) |
| --- | --- | --- | --- | --- | --- | --- | --- |
| O=c1ccc2ccc(NC3C(O)OC(CO)[C@H](O)[C@H]3O)cc2o1 (stereo partly drawn) [CLG, 2-deoxy-2-(2-oxo-2H-chromen-7-yl)amino-L-glucose] | significantly inhibited | significantly smaller | not observed | slightly inhibited | not inhibited | – | – |
| O=c1ccc2ccc(NC3C(O)OC(CO)[C@@H](O)[C@@H]3O)cc2o1 (stereo partly drawn) [CDG, 2-deoxy-2-(2-oxo-2H-chromen-7-yl)amino-D-glucose] | significantly inhibited | – | – | significantly suppressed | not suppressed | 28.5% and 28.8% | taken into the normal neuronal cells |
